Results reported in patent US10316037B1, “Compounds and methods for treating cancer” (YALE UNIVERSITY, priority 2016, dated 2019).

Test system: cancer cell lines
Experiment: Anti-cancer activity, CellTiter-Glo luminescence after 72 hours compound treatment
Format: cell-based
Settings: cell line not stated, 4-parameter fit inflection point (IC50)
Method: Compounds to be tested for anti-cancer activity were submitted dry, dissolved to 10 mM stocks in DMSO, and stored protected from light at −80° C. until use. DMSO vehicle control wells, and 3 fold serial dilutions of compounds from 10 mM to 6.2 nM were prepared in 384 well plates. Kinamycin and tamoxifen were also added as controls in this manner.
LN2 aliquots of cancer cells (indicated in the tables of FIGS. 3 and 4) were cultured at YCMD and plated in Corning 3707 TC plates at 400 cells/well initial seeding density in 20 uL of growth medium. Cells were incubated overnight at 37′C in a humidified 5% CO2 incubator, and treated with compounds.
20 nL of compound was dispensed into the assay plates using a 384-well pin tool on the Tecan Aquarius. Final assay compound treatments ranged from 10 uM to 6.2 pM, 0.1% DMSO. […]
For assay readout CellTiter-Glo (Promega) was prepared according to manufacturer's instructions and 20 uL/well was added to assay plates using a MultiDrop. Luminescence was read on an Envision plate reader (Perkin Elmer) with 0.3 second sampling time per well after a 10 min. room temperature incubation in the dark.
Toxic effects have low luminescence signal relative to the vehicle control […]. Raw data (luminescence counts per second) were normalized to percent effect by the formula: […]. […]

Compound | IC50 [µM]
C[C@H](N)CCc1c2c(cc(=O)n1Cc1nc(-c3nc(C(=O)NCCN(C)C)cs3)cs1)C1(CC1)NC2=O [compound 17a] | 0.035
CSCCCNC(=O)c1csc(-c2csc(Cn3c(CC[C@H](C)NC(=O)OC(C)(C)C)c4c(cc3=O)C3(CC3)NC4=O)n2)n1 [compound S4] | 0.011
